Counter-ions that a name gives are not always drawn. Like-named read-outs stand apart in the source and are kept apart here.
Assays:
Assay in all cases: In vitro antibacterial activity (MIC)
Format in all cases: cell-based
[1] = test system: C. freundii 8ASM; settings: Citrobacter freundii, 8ASM
Procedure: (§1) Drug dilutions are prepared in Mueller-Hinton broth ranging from 128 to 0.008 μg/ml. The diluted agents are dispensed in 100 μl amounts into the wells of a 96-well tray and used immediately or frozen at -10° to -70° C. until needed. Using an automated inoculator, 1.5 μl of a 10^-2 dilution of an overnight culture is added to each well of the tray. The tops of the trays are then sealed using transparent tape and incubated overnight at 37° C. The trays are examined with the aid of a viewer. The lowest concentration at which no growth is observed is considered to be the minimum inhibitory concentration (MIC).

[2] = test system: E. aerogenes 503-478; settings: Klebsiella aerogenes, 503478, E. aerogenes 503-478; read-out: MIC
Procedure: as §1

[3] = test system: E. aerogenes 83; settings: Klebsiella aerogenes, 83, E. aerogenes 83; read-out: MIC
Procedure: as §1

[4] = test system: E. aerogenes 8; settings: Klebsiella aerogenes; E. aerogenes 8; read-out: MIC
Procedure: as §1

[5] = test system: E. cloacae 214; settings: Enterobacter cloacae, 214, E. cloacae 214; read-out: MIC
Procedure: as §1

[6] = test system: E. cloacae 5699; settings: Enterobacter cloacae, 5699, E. cloacae 5699; read-out: MIC
Procedure: as §1

[7] = test system: E. cloacae 6951; settings: Enterobacter cloacae, 6951, E. cloacae 6951; read-out: MIC
Procedure: as §1

[8] = test system: E. cloacae 9295; settings: Enterobacter cloacae, 9295, E. cloacae 9295; read-out: MIC
Procedure: as §1

[9] = test system: E. cloacae 9570A; settings: Enterobacter cloacae, read-out: MIC
Procedure: as §1

[10] = test system: E. cloacae P99; settings: Enterobacter cloacae, P99, E. cloacae P99
Procedure: as §1

[11] = test system: E. coli 387-1
Procedure: as §1

[12] = test system: E. coli 48
Procedure: as §1

[13] = test system: E. coli 4
Procedure: as §1

[14] = test system: E. coli 503-455; settings: Escherichia coli, 503455, E. coli 503-455; read-out: MIC
Procedure: as §1

[15] = test system: E. coli 5152
Procedure: as §1

[16] = test system: E. coli R-563; settings: Escherichia coli
Procedure: as §1

[17] = test system: K. pneumoniae 35
Procedure: as §1

[18] = test system: K. pneumoniae 4964
Procedure: as §1

[19] = test system: K. pneumoniae 503-964; settings: Klebsiella pneumoniae, 503964; K. pneumoniae 503-964; read-out: MIC
Procedure: as §1

[20] = test system: K. pneumoniae 503-994; settings: Klebsiella pneumoniae, 503994, K. pneumoniae 503-994; read-out: MIC
Procedure: as §1

[21] = test system: K. pneumoniae 5096; settings: Klebsiella pneumoniae; K. pneumoniae 5096; read-out: MIC
Procedure: as §1

[22] = test system: K. pneumoniae 8357
Procedure: as §1

[23] = test system: K. pneumoniae A; settings: Klebsiella pneumoniae
Procedure: as §1

[24] = test system: K. pneumoniae HE7; settings: Klebsiella pneumoniae; K. pneumoniae HE7; read-out: MIC
Procedure: as §1

[25] = test system: P. aeruginosa 503-56
Procedure: as §1

[26] = test system: P. aeruginosa 503-820; settings: Pseudomonas aeruginosa, 503820; P. aeruginosa 503-820; read-out: MIC
Procedure: as §1

[27] = test system: P. aeruginosa 6148B; settings: Pseudomonas aeruginosa, read-out: MIC
Procedure: as §1

[28] = test system: P. aeruginosa 8710; settings: Pseudomonas aeruginosa; P. aeruginosa 8710; read-out: MIC
Procedure: as §1

[29] = test system: P. aeruginosa 8780; settings: Pseudomonas aeruginosa; P. aeruginosa 8780; read-out: MIC
Procedure: as §1

[30] = test system: P. mirabilis 190; settings: Proteus mirabilis, 190, P. mirabilis 190; read-out: MIC
Procedure: as §1

[31] = test system: P. mirabilis 2; settings: Proteus mirabilis, 2, P. mirabilis 2; read-out: MIC
Procedure: as §1

[32] = test system: P. rettgeri ATCC 9250; settings: Providencia rettgeri, ATCC9250, P. rettgeri ATCC 9250; read-out: MIC
Procedure: as §1

[33] = test system: P. vulgaris ATCC 6380; settings: Proteus vulgaris
Procedure: as §1

[34] = test system: S. marcescens 5805; settings: Serratia marcescens, 5805, S. marcescens 5805; read-out: MIC
Procedure: as §1

[35] = test system: S. marcescens S2; settings: Serratia marcescens; S. marcescens S2; read-out: MIC
Procedure: as §1

[36] = test system: S. marcescens S3; settings: Serratia marcescens; S. marcescens S3; read-out: MIC
Procedure: as §1

[37] = test system: S. marcescens S4; settings: Serratia marcescens, S4, S. marcescens S4; read-out: MIC
Procedure: as §1

[38] = test system: S. marcescens SM; settings: Serratia marcescens, read-out: MIC
Procedure: as §1

[39] = test system: S. pneumoniae 6301; settings: Streptococcus pneumoniae, 6301, S. pneumoniae 6301; read-out: MIC
Procedure: as §1

[40] = test system: S. pneumoniae 6302; settings: Streptococcus pneumoniae, 6302, S. pneumoniae 6302; read-out: MIC
Procedure: as §1

[41] = test system: S. pneumoniae SC; settings: Streptococcus pneumoniae, read-out: MIC
Procedure: as §1

[42] = test system: S. pyogenes 4; settings: Streptococcus pyogenes, 4, S. pyogenes 4; read-out: MIC
Procedure: as §1

[43] = test system: S. schottmuelleri; settings: read-out: MIC
Procedure: as §1

[44] = test system: S. typhi P58A; settings: Salmonella enterica, TYPHI
Procedure: as §1

[45] = test system: S. aureus Giorgio; settings: Staphylococcus aureus, S. aureus Giorgio; read-out: MIC
Procedure: as §1

[46] = Escherichia coli, 48, E. coli 48, read-out: MIC
[47] = Escherichia coli, 4, E. coli 4, read-out: MIC
[48] = R563, E. coli R-563, read-out: MIC
[49] = Klebsiella pneumoniae, 35, K. pneumoniae 35
[50] = Pseudomonas aeruginosa, 50356, P. aeruginosa 503-56, read-out: MIC
[51] = ATCC6380, P. vulgaris ATCC 6380, read-out: MIC
[52] = C. freundii 8ASM, read-out: MIC
[53] = Escherichia coli, 5152, E. coli 5152, read-out: MIC
[54] = Klebsiella pneumoniae, 4964, K. pneumoniae 4964, read-out: MIC
[55] = Klebsiella pneumoniae, 8357, K. pneumoniae 8357, read-out: MIC

With `CCc1nc(C)cn1CCCC1CCN(C=N[C@@H]2C(=O)N3[C@@H]2SC(C)(C)[C@@H]3C(=O)O)CC1` [G, [2S-(2alpha,5alpha,6beta)]-6-[[[4-[3-(2-ethyl-4methyl-1H-imidazol-1-yl)propyl]piperidinyl]methylene]amino]-3,3-dimethyl-7-oxo-4-thia-1-azabicyclo[3.2.0]heptane-2-carboxylic acid hydrochloride] the MIC [1] was 0.125 µg/mL, the MIC [2] was 8 µg/mL and the MIC [3] was 0.5 µg/mL. For the same compound, the MIC [4] was 16 µg/mL, the MIC [5] was 0.25 µg/mL and the MIC [6] was 0.5 µg/mL. For the same compound, the MIC [7] was 16 µg/mL, the MIC [8] was 0.5 µg/mL and the MIC [9] was 0.5 µg/mL. It also gave an MIC [10] of 0.5 µg/mL, an MIC ([11]; Escherichia coli, 3871, E. coli 387-1, read-out: MIC) of 0.25 µg/mL and an MIC [12, 46] of 0.062 µg/mL. The MIC [13, 47] was 0.25 µg/mL, the MIC [14] was 4 µg/mL and the MIC ([15]; Escherichia coli, 5152) was 16 µg/mL. For the same compound, the MIC [16, 48] was 0.25 µg/mL, the MIC [17, 49] was 0.5 µg/mL and the MIC ([18]; Klebsiella pneumoniae, 4964) was 2 µg/mL. It also gave an MIC [19] of 0.062 µg/mL, an MIC [20] of 0.25 µg/mL and an MIC [21] of 128 µg/mL. For the same compound, the MIC ([22]; Klebsiella pneumoniae, 8357) was 1 µg/mL, the MIC [23] was 0.125 µg/mL and the MIC [24] was over 128 µg/mL. The MIC [25, 50] was over 128 µg/mL, the MIC [26] was over 128 µg/mL and the MIC [27] was over 128 µg/mL. For the same compound, the MIC [28] was over 128 µg/mL, the MIC [29] was over 128 µg/mL and the MIC [30] was 0.5 µg/mL. It also gave an MIC [31] of 1 µg/mL, an MIC [32] of 1 µg/mL and an MIC [33, 51] of 0.25 µg/mL. For the same compound, the MIC [34] was 4 µg/mL, the MIC [35] was 1 µg/mL and the MIC [36] was 1 µg/mL. The MIC [37] was 2 µg/mL, the MIC [38] was 1 µg/mL and the MIC [39] was 1 µg/mL. The MIC [40] was 2 µg/mL, the MIC [41] was 1 µg/mL and the MIC [42] was 1 µg/mL. The MIC [43] was 0.125 µg/mL and the MIC [44] was 0.25 µg/mL.
`CC1(C)S[C@@H]2[C@H](N=CN3CCCC(c4ncc[nH]4)C3)C(=O)N2[C@H]1C(=O)O` (stereo partly drawn) [P, [2S-(2alpha,5alpha,6beta)]-6-[[[3-(1H-imidazol-2-yl)-1-piperidinyl]methylene]amino]-3,3-dimethyl-7-oxo-4-thia-1-azabicyclo[3.2.0]heptane-2-carboxylicacid hydrochloride] gave an MIC [1, 52] of 2 µg/mL, an MIC [2] of over 128 µg/mL and an MIC [3] of 8 µg/mL. It also gave an MIC [4] of 16 µg/mL, an MIC [5] of 8 µg/mL and an MIC [6] of 8 µg/mL. It also gave an MIC [7] of over 128 µg/mL, an MIC [8] of 8 µg/mL and an MIC [9] of 8 µg/mL. It also gave an MIC [10] of 8 µg/mL, an MIC ([11]; Escherichia coli, 3871) of 4 µg/mL and an MIC [12, 46] of 2 µg/mL. For the same compound, the MIC [13, 47] was 2 µg/mL, the MIC [14] was 64 µg/mL and the MIC [15, 53] was over 128 µg/mL. For the same compound, the MIC [16, 48] was 2 µg/mL, the MIC [17, 49] was 16 µg/mL and the MIC [18, 54] was 64 µg/mL. It also gave an MIC [19] of 8 µg/mL, an MIC [20] of 8 µg/mL and an MIC [21] of 64 µg/mL. The MIC [22, 55] was 8 µg/mL, the MIC ([23]; K. pneumoniae A, read-out: MIC) was 2 µg/mL and the MIC [24] was 128 µg/mL. The MIC [30] was 4 µg/mL, the MIC [31] was 8 µg/mL and the MIC [32] was 4 µg/mL. The MIC ([33]; ATCC6380) was 0.5 µg/mL, the MIC [45] was 4 µg/mL and the MIC [34] was 128 µg/mL. The MIC [35] was 8 µg/mL, the MIC [36] was 8 µg/mL and the MIC [37] was over 128 µg/mL. It also gave an MIC [38] of 8 µg/mL, an MIC [39] of 1 µg/mL and an MIC [43] of 2 µg/mL. For the same compound, the MIC [44] was 2 µg/mL.
For `CC1(C)S[C@@H]2[C@H](N=CN3CCC(c4ncc[nH]4)CC3)C(=O)N2[C@H]1C(=O)O` [O, [2S-(2alpha,5alpha,6beta)]-6-[[[4-(1H-imidazol-2-yl-1-piperidinyl]methylene]amino]-3,3-dimethyl-7-oxo-4-thia-1-azabicyclo[3.2.0]heptane-2-carboxylic acid hydrochloride trihydrate], the MIC [1, 52] was 0.062 µg/mL, the MIC [2] was over 128 µg/mL and the MIC [3] was 8 µg/mL. For the same compound, the MIC [4] was 32 µg/mL, the MIC [5] was 0.5 µg/mL and the MIC [6] was 0.5 µg/mL. It also gave an MIC [7] of 16 µg/mL, an MIC [8] of 1 µg/mL and an MIC [9] of 0.5 µg/mL. It also gave an MIC [10] of 0.062 µg/mL, an MIC ([11]; Escherichia coli, 3871) of 0.125 µg/mL and an MIC ([12]; Escherichia coli, 48) of 0.125 µg/mL. For the same compound, the MIC ([13]; Escherichia coli, 4) was 0.125 µg/mL, the MIC [14] was 1 µg/mL and the MIC [15, 53] was 16 µg/mL. For the same compound, the MIC ([16]; R563) was 0.125 µg/mL, the MIC ([17]; Klebsiella pneumoniae, K. pneumoniae 35, read-out: MIC) was 1 µg/mL and the MIC [18, 54] was 64 µg/mL. The MIC [19] was 0.5 µg/mL, the MIC [20] was 0.5 µg/mL and the MIC [21] was 64 µg/mL. It also gave an MIC [22, 55] of 0.5 µg/mL, an MIC ([23]; K. pneumoniae A, read-out: MIC) of 0.062 µg/mL and an MIC [24] of over 128 µg/mL. It also gave an MIC ([25]; P. aeruginosa 503-56, hydrochloride trihydrate) of over 128 µg/mL, an MIC [25, 50] of 128 µg/mL and an MIC [26] of over 128 µg/mL. It also gave an MIC [27] of over 128 µg/mL, an MIC [28] of over 128 µg/mL and an MIC [29] of over 128 µg/mL. For the same compound, the MIC [30] was 0.5 µg/mL, the MIC [31] was 1 µg/mL and the MIC [32] was 0.5 µg/mL. It also gave an MIC [33, 51] of 0.25 µg/mL, an MIC [34] of 8 µg/mL and an MIC [35] of 0.5 µg/mL. It also gave an MIC [36] of 0.25 µg/mL, an MIC [37] of 2 µg/mL and an MIC [38] of 0.5 µg/mL. It also gave an MIC [39] of 1 µg/mL, an MIC [40] of 1 µg/mL and an MIC [41] of 1 µg/mL. For the same compound, the MIC [42] was 0.5 µg/mL, the MIC [43] was 0.125 µg/mL and the MIC [44] was 0.125 µg/mL.

Source: US4605744A, “Imidazole derivatives” (Hoffmann-La Roche Inc., priority 1985, dated 1986)
